This note sets out measurements from patent US20070021451A1, “Method for preventing or treating neurologic damage after spinal cord injury” (HAMAMATSU UNIVERSITY SCHOOL OF MEDICINE, priority 2005, published 2007).

The experiment has as its system Rabbit Model of Spinal Cord Ischemia. Description: TUNEL staining of motor neurons (mid lumbar segment). It counts as in vivo, New Zealand White rabbits. The conditions noted are these: NS-7 15 minutes before ischemia or at the onset of reperfusion; P<0.05 vs control (FIG. 6). How it is done:
Twenty-six male New Zealand White rabbits weighting 2.2 to 3.0 kg were used in this experiment. Spinal cord ischemia was induced by occluding the abdominal aorta with […] for 20 minutes just distal to the renal arteries. Surgical preparation was conducted according to the method described in the literature, Terada H. et. al., J. Thorac. Cardiovasc. Surg. 2001; 122: 979-85. A 24-gauge venous catheter was placed in the marginal ear vein for drug administration. The rabbits were anesthetized with intravenous sodium pentobarbital (25 mg/kg) and allowed to breathe spontaneously. Lidocaine (0.5%) was administered at the site of the skin incision as local anesthesia. The left common carotid artery was cannulated with a 24-gauge catheter for monitoring the arterial pressure. Core body temperature was continuously monitored with a rectal probe and was maintained at 38.5° C. with the aid of heating lamp. The infrarenal abdominal aorta was exposed through a transperitoneal approach. […] The number of motor neurons that were positive in TUNEL staining was counted in 3 sections, and the values were averaged (Sakurai M., J. Thorac. Cardiovasc. Surg. 2000; 120: 1148-57, Lang-Lazdunski L., J. Vasc. Surg. 2003; 38: 564-75). […]

Structures are written as SMILES.

Regarding `Cc1cc(-c2ccc(F)cc2)cc(OCCCCCN2CCCCC2)n1.Cl` [NS-7, 4-(4-Fluorophenyl)-2-methyl-6-(5-piperidinopentyloxy)pyridine hydrochloride], the “Total number of apoptotic (TUNEL-positive) motor neurons” value is recorded as “strongly reduced”.
